Laboratory results reported in paper PMC10527014 (Antiviral research, 2023).
≈ marks a conversion by molar mass, not a printed value. Entries after “also recorded” stand apart in the source; their conditions may differ. Like-named read-outs stand apart in the source and are kept apart here.

What was measured:
MDCK = experiment: Cytotoxicity; format: cell-based; conditions: read-out: 50% Cytotoxic concentration CC50, line of Influenza H1N1
[1] = tested on: Influenza H1N1 California/07/2009; experiment: CPE reduction assay, Influenza H1N1 California/07/2009; format: cell-based; conditions: read-out: 50% Effective concentration EC50, Influenza H1N1 California/07/2009, MDCK
CYP1A2 = CYP1A2 (Homo sapiens, UniProt P05177); experiment: CYP inhibition, CYP1A2; format: in vitro ADME; conditions: read-out: CYP inhibition
Solubility = format: physicochemical
[2] = tested on: EV-D68 MP30 PP (mouse-adapted US/MO/14-18949); experiment: EV-D68 respiratory infection model in four-week-old AG129 mice; format: in vivo
EV-71 Tainan/4643/98 = experiment: Virus yield reduction assay, EV-71 Tainan/4643/98; format: cell-based; conditions: read-out: 90% Effective concentration EC90; EV-71 Tainan/4643/98, Vero 76, virus yield reduction
Coxsackie B3 HA 201933 [3] = conditions: read-out: 50% Effective concentration EC50; Coxsackie B3 HA 201933, Vero 76, CPE
[4] = tested on: Human Echovirus-30 Bastianni; experiment: Virus yield reduction assay, Human Echovirus-30 Bastianni; format: cell-based; conditions: read-out: 90% Effective concentration EC90, RD, lowest concentration tested 0.032 μM
Mouse plasma stability = format: in vitro ADME; conditions: @ 5 hr, 37°C
[5] = tested on: Human Echovirus-11 Gregory; conditions: read-out: 50% Effective concentration EC50, RD, lowest concentration tested 0.032 μM
Polio virus 1 Mahoney [6] = format: cell-based; conditions: read-out: 90% Effective concentration EC90, Vero 76, virus yield reduction
[7] = Human plasma protein binding; format: in vitro ADME
[8] = Maximum tolerated dose study in AG129 mice; format: in vivo
Caco-2 = Caco-2 permeability; format: in vitro ADME
[9] = tested on: Human Echovirus-11 Gregory; experiment: Virus yield reduction assay, Human Echovirus-11 Gregory; format: cell-based; conditions: read-out: 90% Effective concentration EC90, RD, lowest concentration tested 0.032 μM
[10] = Mouse plasma protein binding; format: in vitro ADME
Vero = experiment: Cytotoxicity; format: cell-based; conditions: read-out: 50% Cytotoxic concentration CC50, line of Coxsackie B5
CYP2C19 = CYP2C19 (Homo sapiens, UniProt P33261); experiment: CYP inhibition, CYP2C19; format: in vitro ADME; conditions: read-out: CYP inhibition
[11] = Human liver microsomes stability; format: in vitro ADME
CYP3A4 [12] = conditions: 1 μM, rifampicin as positive control, previously tested
Polio virus 1 Mahoney [13] = format: cell-based; conditions: read-out: 50% Effective concentration EC50, Vero 76, CPE
mouse-adapted CVB5 = experiment: Mouse model of CVB5-induced pancreatitis; format: in vivo, BALB/c mice
[14] = tested on: Coxsackievirus B3-Woodruff (CVB3); format: cell-based; conditions: read-out: Inhibitory concentration EC50 against CVB3-Woodruff; HeLa cells; infecting at low MOI 0.1 PFU / cell and adding drug after infection is established; ± SEM
[15] = tested on: ma-EV-D68 US/MO/14-18949 (Mouse adapted); experiment: CPE reduction assay, ma-EV-D68 US/MO/14-18949; format: cell-based; conditions: read-out: 50% Effective concentration EC50, RD
EV-D68 US/MO/14-18949 = conditions: read-out: 50% Effective concentration EC50; EV-D68 US/MO/14-18949, RD; n=3, 4 concentrations (log10 dilution series)
hERG = hERG (Homo sapiens, UniProt Q12809); experiment: hERG inhibition; conditions: read-out: hERG inhibition IC50
Coxsackie B3 Nancy = conditions: read-out: 50% Effective concentration EC50, Vero 76, CPE
Coxsackie B3 HA 201933 [16] = experiment: Virus yield reduction assay, Coxsackie B3 HA 201933; format: cell-based; conditions: read-out: 90% Effective concentration EC90; Coxsackie B3 HA 201933, Vero 76, virus yield reduction
SARS-CoV-2 USA/WA1/2020 = experiment: CPE reduction assay, SARS-CoV-2 USA/WA1/2020; format: cell-based; conditions: read-out: 50% Effective concentration EC50; SARS-CoV-2 USA/WA1/2020, Vero 76, CPE
CYP3A4 [17] = biological target: CYP3A4 (Homo sapiens, UniProt P08684)
Sequence of CYP3A4 (Homo sapiens, UniProt P08684) (P08684 whole entry): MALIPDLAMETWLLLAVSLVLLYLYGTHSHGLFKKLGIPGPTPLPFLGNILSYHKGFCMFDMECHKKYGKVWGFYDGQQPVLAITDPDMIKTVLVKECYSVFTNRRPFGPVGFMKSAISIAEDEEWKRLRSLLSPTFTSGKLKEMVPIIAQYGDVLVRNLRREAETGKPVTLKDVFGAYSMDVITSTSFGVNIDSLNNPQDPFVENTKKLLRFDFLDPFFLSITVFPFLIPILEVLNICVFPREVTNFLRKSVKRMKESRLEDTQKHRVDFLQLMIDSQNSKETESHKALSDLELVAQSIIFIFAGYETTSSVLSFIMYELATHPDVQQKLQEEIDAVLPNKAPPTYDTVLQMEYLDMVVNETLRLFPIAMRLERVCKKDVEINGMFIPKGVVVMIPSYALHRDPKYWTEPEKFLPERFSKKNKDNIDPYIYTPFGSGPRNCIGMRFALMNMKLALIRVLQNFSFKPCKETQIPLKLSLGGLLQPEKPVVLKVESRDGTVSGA

Sequence of CYP1A2 (P05177 whole entry): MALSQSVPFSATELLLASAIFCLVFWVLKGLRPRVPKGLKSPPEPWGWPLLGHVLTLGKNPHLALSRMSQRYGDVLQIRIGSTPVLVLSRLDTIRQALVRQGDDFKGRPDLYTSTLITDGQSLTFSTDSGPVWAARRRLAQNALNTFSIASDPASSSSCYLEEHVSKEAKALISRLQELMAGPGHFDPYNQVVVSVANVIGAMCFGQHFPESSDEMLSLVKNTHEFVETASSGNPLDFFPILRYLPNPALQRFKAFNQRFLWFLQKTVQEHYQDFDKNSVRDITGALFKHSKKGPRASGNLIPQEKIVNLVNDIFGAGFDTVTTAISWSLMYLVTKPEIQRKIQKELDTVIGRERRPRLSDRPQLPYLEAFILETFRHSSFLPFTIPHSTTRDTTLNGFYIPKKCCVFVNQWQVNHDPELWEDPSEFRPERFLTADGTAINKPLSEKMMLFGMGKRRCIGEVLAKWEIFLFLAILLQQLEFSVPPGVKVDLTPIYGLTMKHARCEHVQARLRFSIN
Sequence of hERG (Q12809 whole entry): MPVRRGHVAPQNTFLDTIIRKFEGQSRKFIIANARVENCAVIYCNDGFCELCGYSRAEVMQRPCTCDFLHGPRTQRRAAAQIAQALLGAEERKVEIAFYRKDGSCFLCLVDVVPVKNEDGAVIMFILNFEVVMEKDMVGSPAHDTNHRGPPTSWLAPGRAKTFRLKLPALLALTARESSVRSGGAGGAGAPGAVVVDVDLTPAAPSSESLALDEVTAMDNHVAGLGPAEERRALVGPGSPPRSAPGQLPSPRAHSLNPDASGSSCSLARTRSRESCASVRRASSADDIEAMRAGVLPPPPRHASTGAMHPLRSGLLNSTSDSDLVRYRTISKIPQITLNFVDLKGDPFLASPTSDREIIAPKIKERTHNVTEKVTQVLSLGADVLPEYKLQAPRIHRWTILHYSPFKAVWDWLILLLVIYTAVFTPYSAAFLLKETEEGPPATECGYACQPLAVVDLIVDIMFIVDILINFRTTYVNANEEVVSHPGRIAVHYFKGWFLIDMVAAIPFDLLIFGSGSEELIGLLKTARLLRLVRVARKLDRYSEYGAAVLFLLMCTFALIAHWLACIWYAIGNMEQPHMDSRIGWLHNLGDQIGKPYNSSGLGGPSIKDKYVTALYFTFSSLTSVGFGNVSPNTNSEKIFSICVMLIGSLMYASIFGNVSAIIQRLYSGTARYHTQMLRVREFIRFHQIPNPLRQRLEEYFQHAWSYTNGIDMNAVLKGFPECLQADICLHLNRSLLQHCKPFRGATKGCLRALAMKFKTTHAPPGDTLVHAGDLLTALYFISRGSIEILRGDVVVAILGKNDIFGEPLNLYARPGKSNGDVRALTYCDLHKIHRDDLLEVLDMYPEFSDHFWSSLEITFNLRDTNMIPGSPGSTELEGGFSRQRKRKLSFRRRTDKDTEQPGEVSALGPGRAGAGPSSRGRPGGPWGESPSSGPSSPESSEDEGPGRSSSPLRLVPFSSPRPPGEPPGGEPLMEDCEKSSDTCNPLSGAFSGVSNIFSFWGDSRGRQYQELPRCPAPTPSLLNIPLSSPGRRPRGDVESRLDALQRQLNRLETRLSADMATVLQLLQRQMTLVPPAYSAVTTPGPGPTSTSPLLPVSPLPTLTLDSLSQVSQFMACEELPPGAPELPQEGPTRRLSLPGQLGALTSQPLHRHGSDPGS
Sequence of CYP2C19 (P33261 whole entry): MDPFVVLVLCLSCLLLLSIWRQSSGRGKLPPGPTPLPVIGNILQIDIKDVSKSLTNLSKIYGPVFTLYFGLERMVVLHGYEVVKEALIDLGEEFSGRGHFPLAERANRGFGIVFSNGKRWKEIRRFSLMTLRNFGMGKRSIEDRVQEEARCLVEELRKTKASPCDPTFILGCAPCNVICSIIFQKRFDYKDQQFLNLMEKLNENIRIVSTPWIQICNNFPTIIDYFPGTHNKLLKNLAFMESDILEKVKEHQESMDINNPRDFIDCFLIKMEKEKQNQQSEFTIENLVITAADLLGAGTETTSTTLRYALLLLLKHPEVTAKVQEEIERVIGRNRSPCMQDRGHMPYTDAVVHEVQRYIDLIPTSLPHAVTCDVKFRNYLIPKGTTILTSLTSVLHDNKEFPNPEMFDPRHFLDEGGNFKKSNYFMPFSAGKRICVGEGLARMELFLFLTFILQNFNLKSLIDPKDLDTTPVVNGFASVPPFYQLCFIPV

SMILES: Cc1cc(-c2noc(C(F)(F)F)n2)ccc1OCCCc1cc(C(=O)N(C)C)no1 [compound 11526092, 3-(3-methyl-4-(3-(3-N,N-dimethylcarbamoyl-isoxazol-5-yl)propoxy)phenyl)-5-trifluoromethyl-1,2,4-oxadiazole]
- CC50 (MDCK): 44.8 µM
- EC50 [1]: 25.9 µM
- IC50 (CYP1A2): > 50 µM
- Solubility (in words) (Solubility): low solubility
- Solubility (Solubility; Buffer pH 7.4): 0.11 µM (≈ 0.0467 µg/mL)
- Solubility (Solubility; Fasted State Simulated Gastric Fluid (FaSSGF)): 0.55 µM (≈ 0.233 µg/mL)
- Solubility (Solubility; Fasted State Simulated Intestinal Fluid (FaSSIF)): 12.05 µM (≈ 5.11 µg/mL)
- Lung concentration of IFN-γ ([2]; 10 mg/kg, day 1): reductions
- Lung concentration of IL-10 ([2]; 10 mg/kg, day 5): increase
- Lung virus titer ([2]; 30 mg dose, day 5 p.i., P≤0.05 vs placebo): significant reduction
- Lung concentration of MIP-1α ([2]; 30 mg/kg, day 5): increase
- Lung concentration of MCP-1 ([2]; 100 mg/kg, day 1): reductions
- Lung concentration of IL-1α ([2]; 100 mg/kg, day 3): increase
- Lung concentration of IL-1β ([2]; 100 mg/kg, day 3): increase
- Lung concentration of IL-4 ([2]; 100 mg/kg, day 3): increase
- Lung concentration of IL-6 ([2]; 100 mg/kg, day 3): increase
- Protection from weight loss (percentage of initial body weight) ([2]; 100 mg/kg/d PO, P<0.05, Fig. S16): significant protection from weight loss
- Decrease of viremia ([2]; abstract): 3 log
- Lung concentration of RANTES ([2]; all doses, day 1, P≤0.01 - P≤0.0001): significantly reduced
- Lung concentration of GM-CSF ([2]; all doses, day 1, P≤0.01 - P≤0.001): significantly reduced
- Lung concentration of IL-3 ([2]; all doses, day 1, P≤0.05): significantly reduced
- Lung concentration of IL-5 ([2]; all doses, day 1, P≤0.05): significantly reduced
- Virus titers in the blood (viremia) ([2]; all doses, days 1 and 3 p.i., P≤0.0001): reduce viremia
- Lung virus titers ([2]; day 3 p.i., this study): did not demonstrate any antiviral activity
- Reduction in lung titer ([2]; day 5, abstract): 1 log
- EC90 (EV-71 Tainan/4643/98): 2.45 µM
- EC50 (Coxsackie B3 HA 201933 [3]): 1.01 µM
- EC90 [4]: < 0.032 µM
- Mouse plasma stability (Mouse plasma stability): 81.1% @ 5 hr, 37 °C
- EC50 [5]: < 0.032 µM
- CC50 (Vero 76): 10.8 µM
- CC50 (Vero 76; read-out: 50% Cytotoxic concentration CC50, Vero 76, line of Coxsackie B3 HA 201933): 8 µM
- CC50 (Vero 76; read-out: 50% Cytotoxic concentration CC50, Vero 76, line of Coxsackie B3 Nancy): 8 µM
- CC50 (Vero 76; read-out: 50% Cytotoxic concentration CC50, Vero 76, line of EV-71): 8.25 µM
- CC50 (Vero 76; read-out: 50% Cytotoxic concentration CC50, Vero 76, line of SARS-CoV-2): 7.54 µM
- EC90 (Polio virus 1 Mahoney [6]): 0.52 µM
- Human plasma protein binding, stability [7]: 93.9%
- Human plasma protein binding, bound ([7]; human): 99.7%
- Maximum tolerated dose ([8]; given IP): > 10 mg/kg
- Maximum tolerated dose ([8]; given PO): > 100 mg/kg
- Caco-2 Efflux ratio (Caco-2): 3.5
- Caco-2 Papp A-B (Caco-2): 880 ×10⁻⁶ cm/s
- Caco-2 Papp B-A (Caco-2): 3090 ×10⁻⁶ cm/s
- P-gp substrate (in words, from Caco-2 data) (Caco-2): likely a P-gp substrate
- EC90 [9]: < 0.032 µM
- Mouse plasma protein binding, stability [10]: 88.1%
- Mouse plasma protein binding, bound ([10]; mouse): 99.8%
- CC50 (Vero): 59.1 µM
- IC50 (CYP2C19): 2.1 µM
- Human liver microsomes stability (in words) [11]: metabolically stable
- Human liver microsomes T1/2 ([11]; human): 55.3 min
- Human liver microsomes clearance ([11]; human): 25.1 μL /min/mg protein
- CYP3A induction, of control (CYP3A4 [12]): 3 % of control
- CYP3A induction (CYP3A4 [12]; single donor in duplicate): 1.2 x
- EC50 (Polio virus 1 Mahoney [13]): 0.57 µM
- Relative fold gene expression in the pancreas (qPCR) (mouse-adapted CVB5; 100 mg/kg per day, Fig. 5B): statistically significant (P≤0.05) decrease
- Histology of pancreatic tissue (mouse-adapted CVB5; CVB5-infected mice, Fig. S20): no signs of tissue damage
- EC50 [14]: 0.016 µM
- EC50 [15]: 0.028 µM
- EC50 (EV-D68 US/MO/14-18949): < 0.1 µM
- IC50 (hERG): > 100 µM
- EC50 (Coxsackie B3 Nancy): 1.27 µM
- EC90 (Coxsackie B3 HA 201933 [16]): 7.78 µM
- EC50 (SARS-CoV-2 USA/WA1/2020): > 7.54 µM
- Effect on CYP3A4 (in words) (CYP3A4 [17]; human liver microsomes, at higher concentrations (Fig. S21)): activation (or autoactivation) of CYP3A4; also recorded: * CYP3A4 demonstrates activation with 11526092
- IC50 (CYP3A4 [17]; read-out: CYP inhibition, CYP3A4): > 50 µM
